Measurements as given in patent US10000577B2, “Treatment of otitis media” (Research Institute at Nationwide Children's Hospital, priority 2015, dated 2018).
Entries after “also recorded” stand apart in the source; their conditions may differ.

Tested on: NHBE cells
Assay: Inhibition of Arp2/3 - normal human bronchial epithelial cell (NHBE) infection model with GFP-expressing NTHI
Type: cell-based
Details: 200 μM CK-636, 24 or 48 hours
Description: Inhibition of Arp2/3—Normal human bronchial epithelial cell (NHBE) infection model: NHBE cells (Lonza, Walkersville, Md.) were seeded into 24-well plates containing sterile coverslips and grown in Bronchial Epithelial Cell Growth Medium (BEGM; Lonza, Walkersville, Md.) at 37° C. in a 5% CO2 atmosphere to near confluency. […] The next morning the colonies were re-suspended in brain heart infusion broth supplemented with 2 μg/ml heme and 2 μg/ml β-NAD (sBHI) and grown at 37° C. with shaking at 180 rpm until the cells were in mid-log phase (˜5 generations). Prior to infection, the BEGM was removed from the NHBE cells and replaced with BEGM that contained either 200 μM CK-636 (Sigma-Aldrich, St. Louis, Mo.), an inhibitor of Arp2/3 function, or 0.2% DMSO, the vehicle for CK-636. Strain 86-028NP(pGM1.1) was then added to the NHBE cells at a multiplicity of infection of 50 bacteria to one NHBE cell and incubated at 37° C. in a 5% CO2 atmosphere for one hour. The NHBE cells were then washed twice with DPBS before being placed back in BEGM that contained either 200 μM CK-636 or 0.2% DMSO. Cells were incubated at 37° C. in a 5% CO2 atmosphere for 24 or 48 hours. At each time point, cells were stained with WGA-Alexa Fluor 594, fixed in 4% paraformaldehyde (Electron Microscopy Sciences, Hatfield, Pa.) in DPBS, permeabilized with 0.1% Triton X-100 then stained with phalloidin-Alexa Fluor 350. […]

Compound: Cc1[nH]c2ccccc2c1CCNC(=O)c1cccs1 [CK-636]
- NTHI invasion / bacterial uptake into epithelial cells (fluorescent microscopy) (NTHI strain 86-028NP(pGM1.1), MOI 50, versus 0.2% DMSO vehicle): reduced NTHI invasion into epithelial cells; also recorded: increase in the number of extracellular bacteria indicating that bacterial uptake was reduced
- actin structure of NHBE cells (phalloidin staining, fluorescent microscopy) (NTHI-infected NHBE cells): gross morphological changes in actin structure
